Test results as given in paper PMC7151626, “Antioxidant and α-amylase Inhibitory Activities and Phytocompounds of Clausena indica Fruits” (Medicines, 2020).

Molecular target: T1, porcine pancreatic α-amylase (PPA) (Sus scrofa, UniProt P00690)
T1 construct: gene AMY2; native pancreatic enzyme
T1 sequence (P00690 16-511): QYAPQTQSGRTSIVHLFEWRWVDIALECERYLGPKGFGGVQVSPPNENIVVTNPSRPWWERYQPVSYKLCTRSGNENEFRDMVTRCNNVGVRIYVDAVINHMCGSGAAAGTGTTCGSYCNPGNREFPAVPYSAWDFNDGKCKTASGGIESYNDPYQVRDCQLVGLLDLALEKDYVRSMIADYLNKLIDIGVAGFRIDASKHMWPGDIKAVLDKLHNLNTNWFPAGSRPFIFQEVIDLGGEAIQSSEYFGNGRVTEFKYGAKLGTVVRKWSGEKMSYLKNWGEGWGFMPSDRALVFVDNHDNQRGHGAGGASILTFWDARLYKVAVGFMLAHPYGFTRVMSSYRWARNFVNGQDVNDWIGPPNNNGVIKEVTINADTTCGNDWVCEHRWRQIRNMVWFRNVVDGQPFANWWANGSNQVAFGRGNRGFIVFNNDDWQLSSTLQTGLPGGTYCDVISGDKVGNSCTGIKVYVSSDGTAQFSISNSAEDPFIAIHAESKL
Experiment: starch-iodine colorimetric assay, […] nm
Type: biochemical
Conditions: read-out: α-Amylase IC50 (mg/mL) (converted)

IC50: 5.93 mM
Structure (SMILES): CCCCCCCCCCCCCCCC(=O)O [palmitic acid]
